From publication PMC9127750, “Structure-based design of CDC42 effector interaction inhibitors for the treatment of cancer” (Cell reports, 2022)
Several values for one entry are separate records, joined by “and”; a condition that tells them apart may be missing. Equal values may be shown once.

Tested on: WM3248 melanoma cells, 486 antibodies
Assay: Reverse phase protein arrays (RPPA)
Type: cell-based, Human
Settings: 10 uM, single replicates
Description: Pellets were snap frozen in liquid nitrogen and shipped to MD Anderson Cancer Center core RPPA facility for RPPA analysis (Table S5). Three biological replicates for each sample were generated.
Nomenclatures on the RPPA heatmaps: name_of_antibody.species_of_antibody.status_of_antibody. V - antibody validated; C - validation of antibody in progress; Q - antibody nonspecific; E – under evaluation; antibodies raised in M - mouse, G - goat, R - rabbit, or T - rat.

## CN(C)c1cccc(Nc2cc(-c3ccccc3)nc(C3CCNCC3)n2)c1 [ARN22089, N1,N1-dimethyl-N3-(6-phenyl-2-(piperidin-4-yl)pyrimidin-4-yl)benzene-1,3-diamine]
  RPPA PDHA1.R.V: 0.868 and 1.050
  RPPA PDHK1.R.C: 0.847 and 0.989 and 1.019
  RPPA PDK1.R.V: 1.007 and 1.121 and 1.006
  RPPA PDK1_pS241.R.V: 0.935 and 0.909 and 0.981
  RPPA PEA.15.R.V: 0.898 and 0.934 (2×)
  RPPA PEA.15_pS116.R.V: 0.987
  RPPA PERK.R.V: 0.972 and 0.874
  RPPA PGM1.R.V: 1.007 and 0.983 and 1.004
  RPPA PHGDH.R.C: 0.889 and 1.016
  RPPA PHLPP.R.V: 1.515 and 0.856 and 0.877
  RPPA PI3K.p85.R.C: 1.113 and 1.033
  RPPA PI3K.p110.a.R.C: 0.828 and 0.921 and 0.963
  RPPA PI3K.p110.b.M.C: 0.981 and 0.937
  RPPA PKA.a.R.V: 1.016 and 0.756 and 0.860
  RPPA PKC.a.b.II_pT638_T641.R.V: 0.761 and 0.940 and 1.029
  RPPA PKC.b.II_pS660.R.V: 0.960 and 1.055
  RPPA PKCa.R.V: 1.576 and 0.715 and 0.684
  RPPA PKM2.R.C: 0.940 and 0.831 and 1.047
  RPPA PLC.gamma1.R.V: 1.302 and 0.921 and 1.027
  RPPA PLC.gamma1_pS1248.R.V: 1.246 and 0.852 and 0.899
  RPPA PLC.gamma2_pY759.R.V: 1.055 and 1.008 and 1.052
  RPPA PLK1.R.C: 1.052 and 0.570
  RPPA PMS2.R.V: 1.013 and 1.061 and 1.035
  RPPA PR.R.V: 1.051 and 1.057 and 1.083
  RPPA PRAS40.M.C: 1.053 and 1.125 and 0.970
  RPPA PRAS40_pT246.R.V: 0.997 and 0.945 and 0.929
  RPPA PRC1_pT481.R.C: 1.013
  RPPA PREX1.R.V: 0.847 and 0.880 and 1.018
  RPPA PTEN.R.V: 0.967 and 0.919
  RPPA PTPN12.R.V: 0.922 and 0.923
  RPPA PYGB.R.V: 1.000 and 1.018
  RPPA PYGM.M.C: 0.933 and 0.899 and 1.244
  RPPA Patched.R.C: 0.891 and 1.022 and 1.001
  RPPA Paxillin.R.C: 0.651 and 0.874 and 0.967
  RPPA Pdcd4.R.C: 1.032 and 0.964 and 0.935
  RPPA Porin.M.V: 0.986 and 1.054 and 1.019
  RPPA Puma.R.C: 1.032 and 0.898 and 0.973
  RPPA Pyk2_pY402.R.C: 0.958 and 0.968 and 0.955
  RPPA RBM15.R.V: 0.860 and 0.890 and 0.867
  RPPA RIP3.R.C: 0.858 and 0.945
  RPPA RIP.R.C: 0.855 and 1.003
  RPPA RPA32.R.V: 1.116 and 1.009 and 0.985
  RPPA RPA32_pS4_S8.R.C: 1.499 and 0.874 and 0.876
  RPPA RRM1.R.C: 0.796
  RPPA RRM2.R.C: 0.716 and 0.950 and 1.085
  RPPA RSK1.R.V: 1.235 and 0.841
  RPPA RSK.R.C: 1.016 and 0.831 and 0.880
  RPPA Rab11.R.C: 0.965 and 1.012 and 0.993
  RPPA Rab25.R.V: 0.970 and 0.991 and 0.975
  RPPA Rad17_pS645.R.V: 1.158
  RPPA Rad23A.R.C: 0.785 and 0.923 and 1.052
  RPPA Rad50.R.V: 1.047 and 1.001 and 0.925
  RPPA Rad51.R.C: 1.141
  RPPA Raptor.R.V: 0.898 and 0.967 and 0.952
  RPPA Rb.M.Q: 1.031
  RPPA Rb_pS807_S811.R.V: 0.993 and 0.916 and 0.946
  RPPA Rheb.M.C: 1.005
  RPPA Rictor.R.C: 0.984 and 0.977 and 0.904
  RPPA Rictor_pT1135.R.V: 1.006 and 1.049 and 1.026
  RPPA S6.M.V: 1.029 and 0.890 and 0.873
  RPPA S6_pS235_S236.R.V: 0.665 and 0.702 and 0.771
  RPPA S6_pS240_S244.R.V: 1.130 and 0.761 and 0.978
  RPPA SCD.M.V: 0.998 and 1.016
  RPPA SDHA.R.V: 0.885 and 1.085 and 0.936
  RPPA SF2.R.V: 0.975 and 1.048 and 0.992
  RPPA SFRP1.R.V: 0.871 and 0.955
  RPPA SGK1.R.V: 1.123 and 0.868
  RPPA SGK3.R.V: 0.999 and 1.114 and 0.994
  RPPA SHP2.R.V: 1.022 and 1.001 and 0.989
  RPPA SHP.2_pY542.R.C: 0.948 and 0.890 and 0.849
  RPPA SIRPαR.V: 1.018 and 0.987 and 1.021
  RPPA SLC1A5.R.C: 0.918 and 0.893 and 1.114
  RPPA SOD1.M.V: 1.011 and 1.084 and 0.999
  RPPA SOD2.R.V: 1.111 and 1.200 and 1.033
  RPPA SOX7.R.V: 1.014 and 0.995
  RPPA STING.R.V: 0.837 and 0.985 and 0.890
  RPPA Shc_pY317.R.C: 0.828 and 3.472 and 1.241
  RPPA Slfn11.G.C: 0.855 and 0.895
  RPPA Smac.M.Q: 0.941 and 1.118 and 0.934
  RPPA Smad1.R.V: 0.926 and 1.050
  RPPA Smad3.R.V: 0.971 and 0.982 (2×)
  RPPA Smad4.R.V: 1.125 and 1.111 and 0.988
  RPPA Snail.M.Q: 0.848 and 1.076 and 1.006
  RPPA Sox2.R.V: 0.994 and 0.995 and 0.973
  RPPA Sox17.R.V: 1.081 and 0.902
  RPPA Src.M.V: 0.986 and 1.228 and 1.023
  RPPA Src_pY416.R.V: 1.112 and 0.914
  RPPA Src_pY527.R.V: 1.187 and 0.891 and 0.646
  RPPA Stat1_pY701.R.V: 1.116 and 1.000 and 0.989
  RPPA Stat3.R.C: 0.928 and 0.967 and 1.021
  RPPA Stat3_pY705.R.C: 1.145 and 0.998 and 0.863
  RPPA Stat5a.R.V: 1.136 and 0.906 and 0.832
  RPPA Stathmin.1.R.V: 0.796 and 1.056 and 1.053
  RPPA Syk.M.V: 0.989 and 1.109 and 1.102
  RPPA Synaptophysin.R.C: 1.199 and 0.991
  RPPA TAZ.R.V: 0.707 and 1.122 and 1.046
  RPPA TEAD.R.C: 0.724 and 1.098 and 1.080
  RPPA TFAM.R.V: 0.916 and 0.953 and 0.872
  RPPA TFRC.R.V: 0.933 and 0.837 and 1.007
  RPPA TIGAR.R.V: 1.010 and 0.954 and 0.970
  RPPA TRAP1.M.V: 0.985
  RPPA TRIM24.R.C: 1.099 and 1.139 and 0.970
  RPPA TRIM25.R.C: 0.787 and 0.889 and 0.933
  RPPA TRIP13.R.V: 1.107 and 0.967 and 1.005
  RPPA Tau.M.C: 1.121 and 1.140
  RPPA Transglutaminase.M.V: 0.953 and 1.132 and 1.561
  RPPA level HLA.DQA1.R.V: 0.942 and 1.249 and 0.908
  RPPA level HLA.DR.DP.DQ.DX.R.C: 0.965 and 0.939
  RPPA level HMHA1.R.V: 0.904 and 1.030 and 0.992
  RPPA level HNRNPK.R.V: 1.000 and 1.157 and 1.048
  RPPA level HSP27.M.C: 1.035 and 0.965
  RPPA level HSP27_pS82.R.V: 0.973 and 1.006 and 0.985
  RPPA level HSP60.R.V: 0.817 and 0.961
  RPPA level HSP70.R.C: 0.863 and 0.990 and 0.973
  RPPA level Hexokinase.I.R.C: 1.158 and 0.954
  RPPA level Hexokinase.II.R.V: 1.125 and 0.921 and 0.919
  RPPA level Hif.1αR.C: 1.247 and 1.014 and 0.671
  RPPA level Histone.H3.R.V: 0.930 and 0.956 and 0.776
  RPPA level Histone.H3_pS10.R.V: 1.200 and 0.894 and 1.027
  RPPA level IDO.R.C: 0.882 and 1.060
  RPPA level IGF1R_pY1135_Y1136.R.V: 0.904 and 0.968 and 0.956
  RPPA level IGFBP2.R.V: 0.540 and 0.765
  RPPA level IGFBP3.M.V: 0.727 and 1.079 and 1.122
  RPPA level IGFRb.R.C: 0.931 and 1.005 and 0.850
  RPPA level IL.6.R.C: 0.856 and 0.994 and 1.019
  RPPA level IMP3.R.C: 1.033 and 1.014 and 0.956
  RPPA level INPP4b.R.C: 0.980 and 0.827
  RPPA level IR.b.R.C: 0.942 and 1.158 and 1.047
  RPPA level IRF.1.R.V: 0.733 and 0.989 and 0.863
  RPPA level IRF.3.R.V: 1.005 and 1.049 and 1.057
  RPPA level IRS1.R.V: 0.956 and 0.975 and 0.990
  RPPA level IRS2.R.C: 1.250 and 0.922 and 0.822
  RPPA level JAB1.M.C: 0.937 and 1.033
  RPPA level JNK2.R.V: 0.765 and 3.367 and 1.426
  RPPA level JNK_pT183_Y185.R.C: 0.982 and 0.932 and 1.030
  RPPA level Jagged1.R.V: 0.877 and 1.048
  RPPA level Jak2.R.V: 0.931 (2×) and 1.019
  RPPA level KAP1.R.V: 1.035 and 0.844 and 0.861
  RPPA level KEAP1.R.V: 1.174 and 0.839
  RPPA level LAD1.R.V: 0.772 and 1.056 and 1.078
  RPPA level LC3A.B.R.C: 1.052 and 0.957 and 0.853
  RPPA level LCN2.R.V: 2.061 and 0.840 and 0.854
  RPPA level LDHA.R.C: 0.770 and 1.150
  RPPA level LRP6_pS1490.R.V: 0.906 and 0.988 and 0.894
  RPPA level Lasu1.R.V: 1.033 and 1.132 and 1.052
  RPPA level Lck.R.V: 0.988 and 0.991 and 0.942
  RPPA level Lyn.R.V: 1.113 and 1.221 and 0.942
  RPPA level MACC1.R.V: 1.081 and 1.061 and 1.005
  RPPA level MAPK_pT202_Y204.R.C: 0.770 and 0.851 and 1.246
  RPPA level MCT4.R.V: 0.673 and 0.768 and 1.020
  RPPA level MDM2_pS166.R.V: 1.142 and 0.902
  RPPA level MEK1.R.V: 2.774 and 0.771 and 0.759
  RPPA level MEK1_pS217_S221.R.V: 1.065 and 0.907 and 1.005
  RPPA level MEK2.R.V: 0.928 and 1.010 and 0.996
  RPPA level MERIT40.R.C: 0.985
  RPPA level MERIT40_pS29.R.V: 0.918 and 1.049
  RPPA level METTL3.R.V: 1.128 and 1.097 and 0.930
  RPPA level MIF.R.C: 1.023 and 1.117 and 1.048
  RPPA level MIG6.R.V: 0.921 and 1.139 and 1.007
  RPPA level MITF.R.V: 1.105 and 1.065 and 0.952
  RPPA level MLH1.M.V: 1.000 and 0.967
  RPPA level MLKL.R.V: 0.819 and 0.881 and 1.048
  RPPA level MMP2.R.V: 1.026 and 0.968 and 0.958
